Data from PubChem BioAssay (NCI).
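Where inhibition never reached the appropriate level, the endpoint shown equals the highest concentration tested. Otherwise, values were interpolated linearly from a five-concentration, 48-hour dose response in 96-well plates. TGI marks complete inhibition of growth.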

Tests used:
Assay in all cases: NCI-60 cell line screen, 48 h
[1] = test system: UO-31 renal
[2] = test system: PC-3 prostate
[3] = test system: COLO 205 colon
[4] = test system: HCC-2998 colon
[5] = test system: EKVX NSCLC
[6] = test system: SR leukemia
[7] = test system: MCF7 breast
[8] = test system: LOX IMVI melanoma
[9] = test system: HCT-15 colon
[10] = test system: SK-MEL-5 melanoma

Compound | TGI [1] [µM] | TGI [2] [µM] | TGI [3] [µM] | TGI [4] [µM] | TGI [5] [µM] | TGI [6] [µM] | TGI [7] [µM] | TGI [8] [µM] | TGI [9] [µM] | TGI [10] [µM]
COc1ccc(Oc2cnn(C(Br)(Br)C(C)=O)c(=O)c2Br)cc1 | 26.8 | 27.4 | 26.9 | 30.6 | 36.1 | 5.32 | 34.8 | 24.4 | 39.8 | 30
C[C@]12CC[C@@H]3c4ccc(O)cc4CC[C@H]3[C@@H]1C/C(=C\c1ccc(C#N)cc1)C2=O | > 100 | > 100 | > 100 | > 100 | > 100 | > 100 | > 100 | > 100 | > 100 | > 100
O=C1c2cccc(O)c2C(=O)c2c(OC3OC(CO)C(O)C(O)C3O)cccc21 (configuration not stated) | > 100 | 82 | 39.2 | 59.6 | > 100 | > 100 | > 100 | > 100 | 94.9 | 36
O=C(CC(C(=O)c1ccco1)c1ccco1)c1ccco1 (configuration not stated) | 92.5 |  | > 100 | > 100 | > 100 | > 100 | > 100 | > 100 |  | > 100
O=S1(=O)c2cnccc2NC(=NCc2ccccc2)N1c1ccccc1 | > 100 | > 100 | > 100 | > 100 | > 100 | > 100 | > 100 | > 100 | > 100 | > 100
CC(C)C1=C(O)C2=C(C(=O)C1=O)C1(C)CCCC(C)(C)C1C(O)C2OC=O (configuration not stated) | 18.8 | 30.6 | 12.5 | 19.2 | 21.7 | 6.52 | 27.7 | 11.6 | 16.4 | 18.9
COC1C(O)C(O[C@H]2CC[C@@]3(C)C(CC[C@@H]4[C@@H]3CC[C@]3(C)[C@@H](C(C)OC5OC(CO)C(O)C(O)C5O)CC[C@]43O)C2)OC(C)C1OC1OC(CO)C(O)C(O)C1O (some centres not stated) | > 100 | > 100 | > 100 | > 100 | > 100 | > 100 | > 100 | > 100 | > 100 | > 100
CN(C)CCCNC(=O)c1c(O)c2ccccc2n(C)c1=O | > 100 | > 100 | > 100 | > 100 | > 100 | > 100 | > 100 | > 100 | > 100 | > 100
O=S1SC(=S)C2C=CC=CC21 (configuration not stated) | > 100 | > 100 | > 100 | > 100 | > 100 | > 100 | > 100 | > 100 | > 100 | > 100
CCOC(=O)c1c(SCCN2CCOCC2)n(-c2ccccc2)c(=S)n(-c2ccccc2)c1=O | > 100 |  | > 100 | > 100 |  | 48.2 | 41.5 | 33.3 | 45.7 | 90.1
CC1(C)CC(C#Cc2ccccc2)CC(C)(C)N1O | 32.4 | 29.4 | 49.4 | 32.2 | > 100 | > 100 | 36.3 | 29.9 | 29 | 30.7
O=C1CS(=O)(=O)C(c2cccc(Oc3ccccc3)c2)N1c1cc(Cl)ccc1Cl (configuration not stated) | 43.7 | 32 | > 100 | 37.1 | > 100 | > 100 | 35.4 | 28.2 | 69.9 | 31.2
CC(=O)n1nc(-c2ccccc2)n(/N=C/c2ccc([N+](=O)[O-])o2)c1=O | 4.17 | 30.9 | 12.7 | 19.1 | > 49.1 | 14.1 | 13.8 | 23.2 | 15.4 | 14.8
O=[N+]([O-])/C(Cl)=C(\NCCN/C(C(Cl)=C(Cl)Cl)=C(/Cl)[N+](=O)[O-])C(Cl)=C(Cl)Cl | > 100 | > 100 | > 100 | > 100 | > 100 | 50.4 | > 100 | 37.8 | > 100 | 
CC1(C)N=C2C(=O)c3c([nH]c4ccccc34)[C@]3(C)CCC1CC23 (some centres not stated) | > 6.25 | > 6.25 | > 6.25 | > 6.25 | > 6.25 | > 6.25 | > 6.25 | > 6.25 | > 6.25 | > 6.25
C/C(=C\CO)CC/C=C(\C)CNc1ccc([N+](=O)[O-])cc1 | 45.9 | 66.2 | > 100 |  | > 100 | 27.1 | > 100 | > 100 | > 100 | 25.6
c1ccc2c(c1)CCCC/C2=N/OCC1CO1 (configuration not stated) |  |  | > 100 | > 100 | > 100 | > 100 |  | > 100 | > 100 | > 100
CCN(CCCl)c1cc(CN(C)C)cc(NC(=O)c2ccc(C(=O)Nc3cccc(CN(C)C)c3)cc2)c1 | 76.3 | 0.733 | 2.41 | 3.05 |  | 1.56 | 1 | 0.569 | > 100 | 
O=C(CC(=O)Nc1ccccc1)NNC(c1cc(N=Nc2ccc(Br)cc2)ccc1O)P(O)O (configuration not stated) | > 10 | > 10 | > 10 | > 10 |  | > 10 | > 10 | > 10 | > 10 | > 10
Nc1nc(Nc2ccccc2)sc1C(=O)c1ccco1 | 30.2 | > 100 | 27.8 |  | 38.7 | 25.2 | 26.3 | 42.8 | 50.9 | 23.2
COc1cc2[nH]c(-c3ccccc3)cc(=O)c2c(OC)c1OC | > 100 | > 100 | > 100 | > 100 | > 100 | > 100 | > 100 | > 100 | > 100 | > 100
CCN(CC)CCO/N=C1\CC[C@H]2[C@@H]3CCc4cc(OC)ccc4[C@H]3CC[C@]12C | 7.77 | 9.29 | 3.03 | 3.33 | 9.76 | 4.31 | 9.49 | 2.04 | 1.94 | 3.21
